# Data published in patent publication US20200131196A1 (Mount Tam Therapeutics, Inc., priority 2017, published 2020).
# Tests used:
# A388 = test: OncoPanel cell proliferation assay, A388; assay type: cell-based, human; conditions: for GI50: read-out: Cell Count GI50
# Method: (§1) Cells were seeded into 384-well plates and incubated in a humidified atmosphere of 5% CO2 at 37° C. Compounds were added the day following cell seeding. At the same time, a time zero untreated cell plate was generated. After a 3-day incubation period, cells were fixed and stained to allow fluorescence imaging of nuclei. Compounds (1 mM stock solutions) were serially diluted in half-log steps from the highest test concentration ([…]), and assayed over 10 concentrations with a maximum assay concentration of 0.1% DMSO. Automated fluorescence microscopy was carried out using a Molecular Devices ImageXpress Micro XL high-content imager, and images were collected with a 4× objective. 16-bit TIFF images were acquired and analyzed with MetaXpress 5.1.0.41 software.
# (§2) Cell proliferation was measured by the fluorescence intensity of an incorporated nuclear dye. The output is referred to as the relative cell count, where the measured nuclear intensity is transformed to percent of control (POC) using the following formula: […]
# (§3) Cellular response parameters were calculated using nonlinear regression to a sigmoidal single-site dose response model:
# (§4) GI50 is the concentration needed to reduce the observed growth by half (midway between the curve maximum and the time zero value). […] In rare instances, values <0 or >10 may be observed. […] Curve-fitting, calculations, and report generation was performed using a custom data reduction engine and MathIQ based software (AIM).
# SK-MEL-28 = test: OncoPanel cell proliferation assay, SK-MEL-28; assay type: cell-based, human; conditions: for GI50: read-out: Cell Count GI50; for IC50: read-out: Cell Count IC50
# Method: as §1, with “Cells were grown in RPMI 1640, 10% FBS, 2 mM L-alanyl-L-glutamine, 1 mM Na pyruvate, or a special medium. Cells” for “Cells”
# as §2, §3
# (§5) EC50 is the test compound concentration at the curve inflection point or half the effective response (parameter C of the fitted curve solution). GI50 is the concentration needed to reduce the observed growth by half (midway between the curve maximum and the time zero value). “Cell Count Activity Area” is an estimate of the integrated area above the curve (Barretina, et al. The Cancer Cell Line Encyclopedia enables predictive modelling of anticancer drug sensitivity. Nature 483: 603-607). […] In rare instances, values <0 or >10 may be observed. […] Curve-fitting, calculations, and report generation was performed using a custom data reduction engine and MathIQ based software (AIM).
# CAMA-1 = test: OncoPanel cell proliferation assay, CAMA-1; conditions: for Cell Count Activity Area: CAMA-1; for EC50: CAMA-1, read-out: Cell Count EC50; for IC50: CAMA-1, read-out: Cell Count IC50
# Method: (§6) Cells were seeded into 384-well plates and incubated in a humidified atmosphere of 5% CO2 at 37° C. Compounds were added the day following cell seeding. At the same time, a time zero untreated cell plate was generated. After a 3-day incubation period, cells were fixed and stained to allow fluorescence imaging of nuclei. Compounds (1 mM stock solutions) were serially diluted in half-log steps from the highest test concentration (1 micromol), and assayed over 10 concentrations with a maximum assay concentration of 0.1% DMSO. Automated fluorescence microscopy was carried out using a Molecular Devices ImageXpress Micro XL high-content imager, and images were collected with a 4× objective. 16-bit TIFF images were acquired and analyzed with MetaXpress 5.1.0.41 software.
# AGS = test: OncoPanel cell proliferation assay, AGS; assay type: cell-based, human; conditions: for GI50: read-out: Cell Count GI50; for IC50: read-out: Cell Count IC50
# Method: as §1, with “Cells were grown in RPMI 1640, 10% FBS, 2 mM L-alanyl-L-glutamine, 1 mM Na pyruvate, or a special medium. Cells” for “Cells”
# as §2, §3, §5
# U-138MG = test: OncoPanel cell proliferation assay, U-138MG; assay type: cell-based, human; conditions: U-138MG; for EC50: read-out: Cell Count EC50; for GI50: read-out: Cell Count GI50
# Method: as §1, with “Cells were grown in RPMI 1640, 10% FBS, 2 mM L-alanyl-L-glutamine, 1 mM Na pyruvate, or a special medium. Cells” for “Cells”
# as §2, §3, §5
# RL95-2 = test: OncoPanel cell proliferation assay, RL95-2; assay type: cell-based, human; conditions: for GI50: read-out: Cell Count GI50
# Method: as §1, with “Cells were grown in RPMI 1640, 10% FBS, 2 mM L-alanyl-L-glutamine, 1 mM Na pyruvate, or a special medium. Cells” for “Cells”
# as §2, §3, §5
# MES-SA = test: OncoPanel cell proliferation assay, MES-SA; assay type: cell-based, human; conditions: for GI50: read-out: Cell Count GI50
# Method: as §1, with “Cells were grown in RPMI 1640, 10% FBS, 2 mM L-alanyl-L-glutamine, 1 mM Na pyruvate, or a special medium. Cells” for “Cells”
# as §2, §3, §5
# U-87 MG = test: OncoPanel cell proliferation assay, U-87 MG; assay type: cell-based, human; conditions: for GI50: read-out: Cell Count GI50
# Method: as §1, with “Cells were grown in RPMI 1640, 10% FBS, 2 mM L-alanyl-L-glutamine, 1 mM Na pyruvate, or a special medium. Cells” for “Cells”
# as §2, §3, §5
# CaOV3 = test: OncoPanel cell proliferation assay, CaOV3; assay type: cell-based, human; conditions: for GI50: Caov-3, read-out: Cell Count GI50
# Method: as §1, with “Cells were grown in RPMI 1640, 10% FBS, 2 mM L-alanyl-L-glutamine, 1 mM Na pyruvate, or a special medium. Cells” for “Cells”
# as §2, §3, §5
# SNU-5 = test: OncoPanel cell proliferation assay, SNU-5; assay type: cell-based, human; conditions: for EC50: read-out: Cell Count EC50; for GI50: read-out: Cell Count GI50
# Method: as §1, §2, §3, §4
# PC-3 = test: OncoPanel cell proliferation assay, PC-3; conditions: for EC50: PC-3, read-out: Cell Count EC50; for GI50: PC-3, read-out: Cell Count GI50; for Cell Count Activity Area: PC-3
# Method: as §6
# SHP-77 = test: OncoPanel cell proliferation assay, SHP-77; conditions: for EC50 / GI50 / IC50: Homo sapiens; for EC50: SHP77, read-out: Cell Count EC50; for GI50: SHP77, read-out: Cell Count GI50; for IC50: SHP77, read-out: Cell Count IC50; for Cell Count Activity Area: SHP-77
# Method: as §6
# [1] = Homo sapiens, read-out: Cell Count EC50
# [2] = Homo sapiens, read-out: Cell Count IC50
structure (smiles),measurement,setting,value
"CO[C@H]1C[C@@H]2CC[C@@H](C)[C@@](O)(O2)C(=O)C(=O)N2CCCC[C@H]2C(=O)O[C@H]([C@H](C)C[C@@H]2CC[C@@H](O)[C@H](OC)C2)CC(=O)[C@H](C)/C=C(\C)[C@@H](O)[C@@H](OC)C(=O)[C@H](C)C[C@H](C)/C=C/C=C/C=C/1C [Rapamycin, reference compound]",EC50,A388; [1],> 1000 nM
same,GI50,A388; Homo sapiens,> 1000 nM
same,IC50,A388; [2],> 1000 nM
same,Cell Count Activity Area,SK-MEL-28,2.50
same,EC50,SK-MEL-28; [1],0.654 nM
same,GI50,SK-MEL-28; Homo sapiens,98.7 nM
same,IC50,SK-MEL-28; Homo sapiens,> 1000 nM
same,Cell Count Activity Area,CAMA-1,4.07
same,EC50,CAMA-1; Homo sapiens,0.194 nM
same,IC50,CAMA-1; Homo sapiens,1.19 nM
same,Cell Count Activity Area,AGS,5.67
same,EC50,AGS; [1],0.0387 nM
same,GI50,AGS; Homo sapiens,0.165 nM
same,IC50,AGS; Homo sapiens,0.314 nM
same,EC50,"U-138MG; Homo sapiens, U138-MG",0.0363 nM
same,GI50,"U-138MG; Homo sapiens, U138-MG",0.436 nM
same,IC50,"U-138MG; Homo sapiens, U138-MG, read-out: Cell Count IC50",> 1000 nM
same,Cell Count Activity Area,U-138MG,3.14
same,Cell Count Activity Area,RL95-2,4.24
same,EC50,RL95-2; [1],0.0705 nM
same,GI50,RL95-2; Homo sapiens,0.13 nM
same,IC50,RL95-2; [2],> 1000 nM
same,Cell Count Activity Area,MES-SA,5.39
same,EC50,MES-SA; [1],0.174 nM
same,GI50,MES-SA; Homo sapiens,0.294 nM
same,IC50,MES-SA; [2],0.415 nM
same,Cell Count Activity Area,U-87 MG,3.79
same,EC50,U-87 MG; [1],0.104 nM
same,GI50,U-87 MG; Homo sapiens,0.384 nM
same,IC50,U-87 MG; [2],> 1000 nM
same,Cell Count Activity Area,CaOV3,2.40
same,EC50,"CaOV3; Homo sapiens, Caov-3, read-out: Cell Count EC50",> 1000 nM
same,GI50,CaOV3; Homo sapiens,> 1000 nM
same,IC50,"CaOV3; Homo sapiens, Caov-3, read-out: Cell Count IC50",> 1000 nM
same,EC50,SNU-5; Homo sapiens,0.885 nM
same,GI50,SNU-5; Homo sapiens,24 nM
same,IC50,SNU-5; [2],> 1000 nM
same,EC50,PC-3; Homo sapiens,0.23 nM
same,GI50,PC-3; Homo sapiens,2.63 nM
same,IC50,"PC-3; Homo sapiens, PC-3, read-out: Cell Count IC50",> 1000 nM
same,Cell Count Activity Area,PC-3,3.57
same,EC50,SHP-77,> 1000 nM
same,GI50,SHP-77,> 1000 nM
same,IC50,SHP-77,> 1000 nM
same,Cell Count Activity Area,SHP-77,1.13
"CN[C@@H]1C[C@H]2O[C@@](C)([C@@H]1OC)n1c3ccccc3c3c4c(c5c6ccccc6n2c5c31)C(=O)NC4 [Staurosporine, reference compound]",Cell Count Activity Area,A388,4.99
same,GI50,A388; Homo sapiens,1.03 nM
same,Cell Count Activity Area,SK-MEL-28,2.81
same,GI50,SK-MEL-28; Homo sapiens,32.1 nM
same,IC50,SK-MEL-28; Homo sapiens,64.3 nM
same,Cell Count Activity Area,CAMA-1,2.99
same,EC50,CAMA-1; Homo sapiens,20.2 nM
same,GI50,"CAMA-1; Homo sapiens, CAMA-1, read-out: Cell Count GI50",12 nM
same,IC50,CAMA-1; Homo sapiens,99 nM
same,Cell Count Activity Area,AGS,6.19
same,GI50,AGS; Homo sapiens,0.926 nM
same,IC50,AGS; Homo sapiens,1.21 nM
same,EC50,"U-138MG; Homo sapiens, U138-MG",0.857 nM
same,GI50,"U-138MG; Homo sapiens, U138-MG",1.05 nM
same,Cell Count Activity Area,U-138MG,3.72
same,Cell Count Activity Area,RL95-2,3.87
same,GI50,RL95-2; Homo sapiens,6.83 nM
same,Cell Count Activity Area,MES-SA,2.80
same,GI50,MES-SA; Homo sapiens,13 nM
same,Cell Count Activity Area,U-87 MG,3.25
same,GI50,U-87 MG; Homo sapiens,0.836 nM
same,Cell Count Activity Area,CaOV3,5.31
same,GI50,CaOV3; Homo sapiens,0.273 nM
same,Cell Count Activity Area,SNU-5,2.58
same,EC50,SNU-5; Homo sapiens,6.44 nM
same,GI50,SNU-5; Homo sapiens,10.3 nM
same,EC50,PC-3; Homo sapiens,0.903 nM
same,GI50,PC-3; Homo sapiens,1.07 nM
same,Cell Count Activity Area,PC-3,4.67
same,EC50,SHP-77,28.1 nM
same,GI50,SHP-77,24.2 nM
same,IC50,SHP-77,30.8 nM
same,Cell Count Activity Area,SHP-77,3.16
